In patent publication US9757353B2, “Methods of inducing anesthesia” (THE REGENTS OF THE UNIVERSITY OF CALIFORNIA, priority 2012, dated 2017):

Key:
[1] = test system: heart, lung, kidney and liver tissues; assay: Histopathology after anesthesia; format: in vivo, mice; settings: tissues collected 2 days later
[2] = test system: some inhibitory potassium channels; assay: Inhibitory potassium channel modulation in vitro; format: cell-based
[3] = molecular target: GABAA (α1β2γ2s) receptors (UniProt P14867+P18508+P63138); assay: Oocyte two-electrode voltage clamp, GABAA receptor currents; settings: saturating aqueous concentration
[4] = molecular target: T1, NMDA (NR1/NR2A) receptors (Rattus norvegicus, UniProt P35439+Q00959); assay: Oocyte two-electrode voltage clamp, NMDA receptor currents; format: cell-based; settings: saturating aqueous concentration
T1 construct: expressed in transfected cells; host or cells: Xenopus laevis oocytes, injected with in vitro transcribed RNA (1:1), clones a gift from Dr. R. A. Harris
Description: Methods: GABAA (α1β2γ2s) or NMDA (NR1/NR2A) receptors were expressed in oocytes and studied using standard two-electrode voltage clamp techniques. Hydrocarbons from 14 different organic functional groups were studied at saturated concentrations, and compounds within each group differed only by the carbon number at the ω-position or within a saturated ring. An effect on GABAA or NMDA receptors was defined as a 10% or greater reversible current change from baseline that was statistically different from zero.
Oocyte Collection and Receptor Expression. An ovary from tricaine-anesthetized Xenopus laevis frogs was surgically removed using a protocol approved by the Institutional Animal Care and Use Committee at the University of California, Davis. Following manual disruption of the ovarian lobule septae, the ovary was incubated in 0.2% Type I collagenase (Worthington Biochemical, Lakewood, N.J.) to defolliculate oocytes which were washed and stored in fresh and filtered modified Barth's solution composed of 88 mM NaCl, 1 mM KCl, 2.4 mM NaHCO3, 20 mM HEPES, 0.82 mM MgSO4, 0.33 mM Ca(NO3)2, 0.41 mM CaCl2, 5 mM sodium pyruvate, gentamycin, penicillin, streptomycin, and corrected to pH=7.4. All salts and antibiotics were A.C.S. grade (Fisher Scientific, Pittsburgh, Pa.).
Clones used were provided as a gift from Dr. R. A. Harris (University of Texas, Austin) and were sequenced and compared to references in the National Center for Biotechnology Information database to confirm the identity of each gene. GABAA receptors were expressed using clones for the human GABAA α1 and the rat GABAA β2 and γ2s subunits in pCIS-II vectors. […] In separate oocytes, glutamate receptors were expressed using rat NMDA NR1 clones in a pCDNA3 vector and rat NMDA NR2A clones in a Bluescript vector. RNA encoding each subunit was prepared using a commercial transcription kit (T7 mMessage mMachine, Ambion, Austin, Tex.) was mixed in a 1:1 ratio, and 1-10 ng of total RNA was injected into oocytes and studied 1-2 days later.
NMDA Receptor Electrophysiology Studies. […] Briefly, baseline perfusion solutions were the same as for GABAA with the substitution of equimolar BaCl2 for calcium salts and the addition of 0.1 mM EGTA; this constituted barium frog Ringer's solution (BaFR). Agonist solutions for NMDA studies also contained 0.1 mM glutamate (E) and 0.01 mM glycine (G) to constitute a BaFREG solution.
The syringe pump and perfusion chamber apparatus as well as the clamp holding potential and baseline-agonist exposure protocols were identical to that described for the GABAA studies. The same test compounds, concentrations, and preparative methods were used in NMDA voltage clamp studies as in the GABAA voltage clamp studies (Table 2).
Response Calculations and Data Analysis. Modulating drug responses were calculated as the percent of the control (baseline) peak as follows:
[formula] where ID and IB were the peak currents measured during agonist+drug and agonist baseline perfusions, respectively. When present, direct receptor activation by a drug was similarly calculated as a percent of the agonist response. […] A lack of receptor response (cut-off) was defined as a <10% change from baseline current that was statistically indistinguishable from zero using a two-tailed Student t-test.

ND4 mice = assay: Loss of righting reflex in ND4 mice; format: in vivo; settings: after 2 hours of anesthesia
Experimental: HFCP caused loss of righting reflex (a surrogate measure of unconsciousness) in 4 healthy ND4 mice at 1.0±0.2 (mean±SD) percent of 1 atmosphere. […] After 2 hours of anesthesia, mice were awake after about 1 minute of discontinuing HFCP administration. […] Despite a lack of NMDA receptor effects, 1,1,2,2,3,3,4-heptafluorocyclopentane is able to produce the desired pharmacologic endpoints of unconsciousness and immobility that appears similar to desirable effects produced by conventional agents.

glycine = assay: Glycine receptor modulation in vitro; format: cell-based

T1 sequence (Q00959 23-1464, other chains not shown): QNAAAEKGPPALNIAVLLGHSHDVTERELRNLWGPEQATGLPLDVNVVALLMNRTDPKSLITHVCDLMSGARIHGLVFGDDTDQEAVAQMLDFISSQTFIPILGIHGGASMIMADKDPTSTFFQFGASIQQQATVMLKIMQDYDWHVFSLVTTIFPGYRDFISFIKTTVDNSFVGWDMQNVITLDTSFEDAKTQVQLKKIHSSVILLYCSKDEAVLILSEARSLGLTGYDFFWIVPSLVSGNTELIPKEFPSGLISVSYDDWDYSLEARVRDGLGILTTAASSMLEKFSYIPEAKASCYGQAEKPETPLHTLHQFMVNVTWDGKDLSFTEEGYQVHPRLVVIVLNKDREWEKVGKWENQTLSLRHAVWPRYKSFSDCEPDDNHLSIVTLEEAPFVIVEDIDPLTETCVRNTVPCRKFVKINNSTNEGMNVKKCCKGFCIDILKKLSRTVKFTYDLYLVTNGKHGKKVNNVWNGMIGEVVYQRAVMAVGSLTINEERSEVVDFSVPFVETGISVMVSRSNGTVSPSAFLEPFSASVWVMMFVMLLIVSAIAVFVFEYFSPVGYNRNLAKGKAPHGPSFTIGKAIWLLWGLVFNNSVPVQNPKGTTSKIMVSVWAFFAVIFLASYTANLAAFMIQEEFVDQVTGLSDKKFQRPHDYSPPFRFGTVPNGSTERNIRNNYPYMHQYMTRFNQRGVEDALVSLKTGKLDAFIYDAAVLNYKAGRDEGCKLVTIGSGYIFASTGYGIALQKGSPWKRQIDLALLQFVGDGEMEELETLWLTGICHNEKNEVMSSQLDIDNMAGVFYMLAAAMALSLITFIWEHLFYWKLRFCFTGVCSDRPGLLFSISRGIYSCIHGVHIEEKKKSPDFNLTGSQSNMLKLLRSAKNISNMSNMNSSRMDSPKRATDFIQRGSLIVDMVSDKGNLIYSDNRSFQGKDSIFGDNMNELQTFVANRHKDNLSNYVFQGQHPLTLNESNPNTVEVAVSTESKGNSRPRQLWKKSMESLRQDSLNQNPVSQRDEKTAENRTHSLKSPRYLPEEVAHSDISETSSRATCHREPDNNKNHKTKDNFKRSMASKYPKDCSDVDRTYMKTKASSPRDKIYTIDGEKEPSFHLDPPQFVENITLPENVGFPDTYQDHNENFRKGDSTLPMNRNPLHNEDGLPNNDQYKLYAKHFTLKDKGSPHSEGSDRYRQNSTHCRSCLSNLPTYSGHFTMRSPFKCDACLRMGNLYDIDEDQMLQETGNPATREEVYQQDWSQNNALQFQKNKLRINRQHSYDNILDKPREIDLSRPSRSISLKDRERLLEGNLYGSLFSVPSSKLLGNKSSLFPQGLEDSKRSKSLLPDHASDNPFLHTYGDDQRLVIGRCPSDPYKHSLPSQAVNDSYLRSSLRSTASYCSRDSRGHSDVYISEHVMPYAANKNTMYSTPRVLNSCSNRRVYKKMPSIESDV
GABAA (α1β2γ2s) receptors, sequence (P14867 28-456): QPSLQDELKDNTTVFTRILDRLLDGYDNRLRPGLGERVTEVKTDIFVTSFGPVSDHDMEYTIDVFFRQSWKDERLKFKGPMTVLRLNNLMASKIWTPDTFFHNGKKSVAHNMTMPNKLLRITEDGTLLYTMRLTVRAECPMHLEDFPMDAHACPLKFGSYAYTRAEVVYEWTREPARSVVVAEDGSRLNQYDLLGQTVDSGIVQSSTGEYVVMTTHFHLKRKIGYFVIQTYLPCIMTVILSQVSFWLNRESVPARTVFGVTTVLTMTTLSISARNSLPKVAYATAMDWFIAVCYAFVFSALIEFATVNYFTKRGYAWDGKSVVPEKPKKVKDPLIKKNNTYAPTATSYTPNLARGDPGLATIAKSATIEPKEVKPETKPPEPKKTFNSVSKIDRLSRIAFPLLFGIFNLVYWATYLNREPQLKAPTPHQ
GABAA (α1β2γ2s) receptors, sequence (P63138 25-474 limits assumed): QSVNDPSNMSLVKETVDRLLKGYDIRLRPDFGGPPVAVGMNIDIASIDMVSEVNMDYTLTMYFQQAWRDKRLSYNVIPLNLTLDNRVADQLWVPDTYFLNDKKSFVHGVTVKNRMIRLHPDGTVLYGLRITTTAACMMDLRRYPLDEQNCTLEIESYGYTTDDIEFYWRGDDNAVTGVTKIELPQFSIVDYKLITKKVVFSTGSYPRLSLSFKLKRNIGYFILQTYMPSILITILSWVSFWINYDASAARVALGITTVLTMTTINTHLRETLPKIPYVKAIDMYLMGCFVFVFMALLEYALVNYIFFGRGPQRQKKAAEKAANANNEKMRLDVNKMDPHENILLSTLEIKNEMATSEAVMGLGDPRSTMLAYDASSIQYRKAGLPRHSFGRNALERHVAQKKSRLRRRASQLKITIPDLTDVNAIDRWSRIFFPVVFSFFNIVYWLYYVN
GABAA (α1β2γ2s) receptors, sequence (P18508 39-466): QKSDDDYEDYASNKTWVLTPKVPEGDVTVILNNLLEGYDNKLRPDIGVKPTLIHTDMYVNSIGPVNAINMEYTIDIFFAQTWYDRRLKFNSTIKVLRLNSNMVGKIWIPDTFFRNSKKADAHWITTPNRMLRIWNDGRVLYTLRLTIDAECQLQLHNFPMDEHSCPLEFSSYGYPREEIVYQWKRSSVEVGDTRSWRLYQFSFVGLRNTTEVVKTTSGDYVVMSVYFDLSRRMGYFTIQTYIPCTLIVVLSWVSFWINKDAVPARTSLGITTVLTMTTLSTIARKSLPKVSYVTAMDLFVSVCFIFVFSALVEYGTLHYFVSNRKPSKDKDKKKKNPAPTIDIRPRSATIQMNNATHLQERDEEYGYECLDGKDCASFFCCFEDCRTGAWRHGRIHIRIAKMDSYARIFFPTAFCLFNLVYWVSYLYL

SMILES: FC1CC(F)(F)C(F)(F)C1(F)F (stereo not drawn) [HFCP, 1,1,2,2,3,3,4-heptafluorocyclopentane]
- histopathology of heart, lung, kidney and liver [1]: no evidence of inflammation or toxicity
- inhibitory potassium channel modulation (in words) [2]: potentiates
- GABAA receptor modulation (in words) [3]: potentiates GABAA
- NMDA receptor modulation (in words) [4]: no effect on NMDA receptors
- time to awake after discontinuing administration (ND4 mice): about 1 minute
- glycine receptor modulation (in words) (glycine): potentiates
